Patent US12653798B2, “Fixed combination medicine for the control and management of neuropathic pain” (LABORATORIOS SILANES S.A. DE C.V., priority 2020, dated 2026)

How the values were obtained:
[1] = in vivo; cited from earlier work
[2] = Dissolution profile tests; format: physicochemical

| SMILES | AUC [1] [μ · h/mL] | Bioavailability [1] | Cmax [1] [ng/mL] | t1/2 [1] [h] | tmax [1] [h] | % dissolved ([2]; t 0 min) [%] | % dissolved ([2]; t 10 min) [%] | % dissolved ([2]; t 60 min) [%] |
| --- | --- | --- | --- | --- | --- | --- | --- | --- |
| O=C(O)Cc1ccccc1Nc1c(Cl)cccc1Cl [Diclofenac] | 4.4 ± 0.08 | 50-60% | 100 to 2200 | 1.0 to 2.0 | 1.98 | – | – | – |
| CC(C)Cc1ccc(C(C)C(=O)O)cc1 (centres unmarked) [Ibuprofen] | 70 | 80% | 20000 | – | 2 | – | – | – |
| O=C(c1ccccc1)c1ccc2n1CCC2C(=O)O (centres unmarked) [Ketorolac] | 4.81 | 80% | 5420 | 3.0 to 6.0 | 0.33 to 1.0 | – | – | – |
| Cc1cnc(NC(=O)C2=C(O)c3ccccc3S(=O)(=O)N2C)s1 [Meloxicam] | 28.8 | – | 1620 ± 200 | – | 3.0 to 6.0 | – | – | – |
| Cc1ncc(CO)c(CO)c1O.Cl [pyridoxine hydrochloride] | – | – | – | – | – | 0.00 | 95.38 | 90.54 |
